{"source": "patent US20240099989A1", "about": "“AGENT FOR PREVENTING OR IMPROVING PERIPHERAL NEUROPATHY” (KINKI UNIVERSITY, priority 2021, published 2024)", "test_system": "Diabetic Peripheral Neuropathy in a Mouse Induced by Streptozotocin", "experiment": "Cold plate test (4° C.), diabetic peripheral neuropathy induced by streptozotocin", "assay_type": "in vivo, C57BL/6J mice", "conditions": "time course", "method": "Six to seven-week-old male C57BL/6J mice were used for the tests as with Example 7. All the mice were acclimated for seven days after arrival. Then, the mice were grouped into the following four groups: a control group, a group receiving streptozotocin, a group receiving 1 mg/kg xylitol, and a group receiving streptozotocin+1 mg/kg xylitol. Each group consisted of nine mice.\nThe mice in the group receiving 1 mg/kg xylitol were orally administered with xylitol at a dose of 1 mg/kg daily from Day 0. The mice in the group receiving streptozotocin+1 mg/kg xylitol were orally administered with xylitol at a dose of 1 mg/kg daily from Day 21 of administration.\nA cold plate test was performed to examine the effect due to xylitol on paresthesia that is caused by a low temperature stimulus. The mice in the four groups described in (1) of the present example (Example 8) were placed on a cold plate set at 4° C., and withdrawal response time (latent time) was measured. It is presumed that a shorter withdrawal response time (latent time) reflects a greater degree of shunning the low temperature stimulus by the cold plate. […]\nOn Day 8 of acclimation, the mice in the group receiving streptozotocin and the group receiving streptozotocin+5 mg/kg D-threitol were administered with streptozotocin at a dose of 200 mg/kg. A massive dose of streptozotocin destroys pancreatic cells in the mice. As a result, insulin is no longer secreted, and thus, diabetes can be developed in the mice. This day was designated as the first day of the administration (Day 0). Note that streptozotocin was administered only on the first day of administration.\nThe mice in the group receiving 5 mg/kg D-threitol and the group receiving streptozotocin+5 mg/kg D-threitol were orally administered with D-threitol at a dose of 5 mg/kg daily from Day 0. […]\nThe mice in the group receiving 5 mg/kg D-threitol were orally administered with D-threitol at a dose of 5 mg/kg daily from Day 0. The mice in the group receiving streptozotocin+5 mg/kg D-threitol were orally administered with D-threitol at a dose of 5 mg/kg daily from Day 21 of administration.\nA cold plate test was performed to examine the effect of D-threitol on paresthesia that is caused by a low temperature stimulus. The mice in the four groups described in (1) of the present example (Example 10) were placed on a cold plate set at 4° C., and withdrawal response time (latent time) was measured. […]\nA cold plate test was performed to examine the effect of L-talitol on paresthesia that is caused by a low temperature stimulus. The mice in the four groups described in (1) of the present example (Example 11) were placed on a cold plate set at 4° C., and withdrawal response time (latent time) was measured. […]", "key": {"[1]": {"conditions": "streptozotocin 200 mg/kg + 5 mg/kg orally daily from Day 21 (therapy)"}}}
{"compound": "OC[C@@H](O)[C@H](O)CO", "note": "[D-threitol]", "values": [{"measurement": "withdrawal response time (latent time)", "setting": "[1]", "value": "extended from Day 21 onwards"}]}
{"compound": "OC[C@H](O)[C@H](O)[C@H](O)[C@@H](O)CO", "note": "[L-talitol]", "values": [{"measurement": "withdrawal response time (latent time)", "setting": "[1]", "value": "extended from Day 21 onwards"}]}
{"compound": "OC[C@@H](O)[C@H](O)[C@@H](O)CO", "note": "[xylitol]", "values": [{"measurement": "withdrawal response time (latent time)", "setting": "streptozotocin 200 mg/kg + 1 mg/kg orally daily from Day 21 (therapy)", "value": "extended from Day 21 onwards"}]}
